Numbered stars: 1 amine (or outer) side, 2 acyl side, 3 side chain; on linkers, the order of the positions; unused ones are H or OH. Bridge positions count the residues as written; N and C are the ends. Square brackets hold non-standard residues; d marks the D form. Peptide text beside a SMILES is read from it. * marks the point of attachment. hPhe(3-Cl-4-CF3) = N[C@@H](CCc1ccc(C(F)(F)F)c(Cl)c1)C(=O)O; X33 = O=C([C@H](CCc1c(F)c(F)c(F)c(F)c1F)N[*:1])[*:2]; hPhe(4-CF3) = N[C@@H](CCc1ccc(C(F)(F)F)cc1)C(=O)O; X103 = O=C([C@H](CCc1c(F)cccc1Cl)N[*:1])[*:2]; 3Oxa8azabicyclo(3.2.1)octane = C1CC2COCC1N2*; NMePhe(4-Cl) = CN[C@@H](Cc1ccc(Cl)cc1)C(=O)O; NMePhe(4-I) = CN[C@@H](Cc1ccc(I)cc1)C(=O)O; NMedβ3hAla = C[C@H](CC(=O)[*:2])N(C)[*:1]; NMeGly(cPent) = CN[C@H](C(=O)O)C1CCCC1; NMe3Pal = CN[C@@H](Cc1cccnc1)C(=O)O; NMeGly(cBu) = CN[C@H](C(=O)O)C1CCC1; NMeCha = CN[C@@H](CC1CCCCC1)C(=O)O; Hyp = O=C(O)[C@@H]1C[C@@H](O)CN1; NMeAhp(2) = CCCCC[C@H](NC)C(=O)O; NMeChg = CN[C@H](C(=O)O)C1CCCCC1; NMeF = CN[C@@H](Cc1ccccc1)C(=O)O; NMeI = CC[C@H](C)[C@H](NC)C(=O)O; X68 = COCCOCCN(CC(=O)[*:2])[*:1]; NMeD = CN[C@@H](CC(=O)O)C(=O)O; NMeHpra = C#CCC[C@H](NC)C(=O)O; NMeL = CN[C@@H](CC(C)C)C(=O)O; NMeNle = CCCC[C@H](NC)C(=O)O; NMeV = CN[C@H](C(=O)O)C(C)C; d(β3hA) = C[C@@H](N)CC(=O)O; NMeS = CN[C@@H](CO)C(=O)O; dPip = O=C(O)[C@H]1CCCCN1; Morpholide = C1CN(*)CCO1; NMeA = CN[C@@H](C)C(=O)O; Piperidide = C1CCN(*)CC1; Pyrrolidide = C1CCN(*)C1; Ac5c = NC1(C(=O)O)CCCC1; Aze = O=C(O)[C@@H]1CCN1; Ethyl(2,2-F2) = FC(F)C*; NBuGly = CCCCNCC(=O)O; Aib = CC(C)(N)C(=O)O; Sar = CNCC(=O)O; Propyl = CCC*
What follows are molecules tested against protein-protein interaction between Kras and SOS1 (biotin-tagged human Kras loaded with GDP, His-tagged human SOS1) (Homo sapiens (Human), UniProt P01116, G12D) (assay: Protein-protein interaction inhibition between Kras and SOS1 (KrasG12D-SOS PPI) using AlphaScreen). Settings: AlphaScreen; biotin-tagged human Kras loaded with GDP, His-tagged human SOS1; read-out: KRAS G12D-SOS PPI IC50.
Type: biochemical

| SMILES | IC50 [nM] |
| --- | --- |
| CC[C@H](C)[C@@H]1NC(=O)[C@H](CC(C)C)N(C)C(=O)C[C@@H](C)N(C)C(=O)[C@H](C2CCCC2)N(C)C(=O)C2(CCCC2)NC(=O)[C@@H]2CCCN2C(=O)[C@H](CCc2ccc(C(F)(F)F)c(Cl)c2)NC(=O)CN(C)C(=O)[C@H](C2CCCC2)N(C)C(=O)[C@@H]2CCN2C(=O)[C@H](C)N(C)C1=O [Compound 1046] (cyclo([Ac5c][NMeGly(cPent)][NMedβ3hAla][NMeL]I[NMeA][Aze][NMeGly(cPent)][Sar][hPhe(3-Cl-4-CF3)]P)) | 4.6 |
| CC[C@H](C)[C@@H]1NC(=O)[C@H](CC(C)C)N(C)C(=O)C[C@@H](C(=O)N2CCOCC2)N(C)C(=O)[C@H](C(C)C)N(C)C(=O)C2(CCCC2)NC(=O)[C@@H]2CCCN2C(=O)[C@H](CCc2ccc(C(F)(F)F)c(Cl)c2)NC(=O)CN(C)C(=O)[C@H](CC2CCCCC2)N(C)C(=O)[C@@H]2CCN2C(=O)CN(C)C1=O [Compound 1758] ([NMeL]I[Sar][Aze][NMeCha][Sar][hPhe(3-Cl-4-CF3)]P[Ac5c][NMeV][NMeD]-Morpholide; lactam N-11) | 1.2 |
| CC[C@H](C)[C@@H]1NC(=O)[C@H](CC(C)C)N(C)C(=O)C[C@@H](C(=O)N2C3CCC2COC3)N(C)C(=O)[C@H]([C@@H](C)CC)N(C)C(=O)C2(CCCC2)NC(=O)[C@@H]2CCCN2C(=O)[C@H](CCc2ccc(C(F)(F)F)c(Cl)c2)NC(=O)CN(C)C(=O)[C@H](C2CCCC2)N(C)C(=O)[C@@H]2CCN2C(=O)[C@H](C)N(C)C1=O [Compound 1002] ([NMeL]I[NMeA][Aze][NMeGly(cPent)][Sar][hPhe(3-Cl-4-CF3)]P[Ac5c][NMeI][NMeD]-{3Oxa8azabicyclo(3.2.1)octane}; lactam N-11) | 2.1 |
| CC[C@H](C)[C@@H]1NC(=O)[C@H](CC(C)C)N(C)C(=O)C[C@@H](C(=O)N2CCOCC2)N(C)C(=O)[C@H](C2CCCC2)N(C)C(=O)C2(CCCC2)NC(=O)[C@@H]2CCCN2C(=O)[C@H](CCc2ccc(C(F)(F)F)c(Cl)c2)NC(=O)CN(C)C(=O)[C@H](CC2CCCCC2)N(C)C(=O)[C@@H]2CCN2C(=O)[C@H](C)NC1=O [Compound 1137] ([NMeL]IA[Aze][NMeCha][Sar][hPhe(3-Cl-4-CF3)]P[Ac5c][NMeGly(cPent)][NMeD]-Morpholide; lactam N-11) | 4.6 |
| CC[C@H](C)[C@@H]1NC(=O)[C@H](CC(C)C)N(C)C(=O)C[C@@H](C)N(C)C(=O)[C@H](C2CCCC2)N(C)C(=O)C2(CCCC2)NC(=O)[C@@H]2CCCN2C(=O)[C@H](CCc2ccc(C(F)(F)F)c(Cl)c2)NC(=O)CN(C)C(=O)[C@H](CC2CCCCC2)N(C)C(=O)[C@@H]2CCN2C(=O)[C@H](C)N(C)C1=O [Compound 1717] (cyclo([Ac5c][NMeGly(cPent)][NMedβ3hAla][NMeL]I[NMeA][Aze][NMeCha][Sar][hPhe(3-Cl-4-CF3)]P)) | 3.3 |
| CC[C@H](C)[C@@H]1NC(=O)[C@H](CC(C)C)N(C)C(=O)C[C@@H](C(=O)N2CCCCC2)N(C)C(=O)[C@H](C2CCCCC2)N(C)C(=O)C2(CCCC2)NC(=O)[C@@H]2C[C@@H](OCC(F)F)CN2C(=O)[C@H](CCc2ccc(C(F)(F)F)c(Cl)c2)NC(=O)CN(C)C(=O)[C@H](CC2CCCCC2)N(C)C(=O)CN(C)C(=O)CN(C)C1=O [Compound 2119] ([NMeL]I[Sar][Sar][NMeCha][Sar][hPhe(3-Cl-4-CF3)][Hyp](Ethyl(2,2-F2))[Ac5c][NMeChg][NMeD]-Piperidide; lactam N-11) | 0.39 |
| CCCOC[C@H]1C(=O)N2CC[C@H]2C(=O)N(C)[C@@H](CC2CCCCC2)C(=O)N(C)CC(=O)N[C@@H](CCc2ccc(C(F)(F)F)c(Cl)c2)C(=O)N2CCC[C@H]2C(=O)NC2(CCCC2)C(=O)N(C)[C@@H](C(C)C)C(=O)N[C@H](C)CC(=O)N(C)[C@@H](CC(C)C)C(=O)N[C@@H]([C@@H](C)CC)C(=O)N1C [Compound 852] (cyclo([Ac5c][NMeV][d(β3hA)][NMeL]I[NMeS](Propyl)[Aze][NMeCha][Sar][hPhe(3-Cl-4-CF3)]P)) | 190 |
| CC[C@H](C)[C@@H]1NC(=O)[C@H](CC(C)C)N(C)C(=O)C[C@@H](C(=O)N2CCCCC2)N(C)C(=O)[C@H](C(C)C)N(C)C(=O)C2(CCCC2)NC(=O)[C@@H]2CCCN2C(=O)[C@H](CCc2ccc(C(F)(F)F)c(Cl)c2)NC(=O)CN(C)C(=O)[C@H](Cc2ccc(Cl)cc2)N(C)C(=O)[C@@H]2CCN2C(=O)[C@H](C)N(C)C1=O [Compound 680] ([NMeL]I[NMeA][Aze][NMePhe(4-Cl)][Sar][hPhe(3-Cl-4-CF3)]P[Ac5c][NMeV][NMeD]-Piperidide; lactam N-11) | 9.9 |
| CC[C@H](C)[C@@H]1NC(=O)[C@H](CC(C)C)N(C)C(=O)C[C@@H](C(=O)N2CCCC2)N(C)C(=O)[C@H](C2CCCCC2)N(C)C(=O)C2(CCCC2)NC(=O)[C@H](Cc2cccnc2)N(C)C(=O)[C@H](CCc2ccc(C(F)(F)F)c(Cl)c2)NC(=O)CN(C)C(=O)[C@H](CC2CCCCC2)N(C)C(=O)CN(C)C(=O)CN(C)C1=O [Compound 1693] ([NMeL]I[Sar][Sar][NMeCha][Sar][hPhe(3-Cl-4-CF3)][NMe3Pal][Ac5c][NMeChg][NMeD]-Pyrrolidide; lactam N-11) | 1.7 |
| CC[C@H](C)[C@@H]1NC(=O)[C@H](C)N(C)C(=O)C[C@@H](C)NC(=O)[C@H](CC(C)C)N(C)C(=O)[C@H](Cc2ccccc2)N(C)C(=O)[C@H](CC(C)C)NC(=O)[C@H](CCc2c(F)cccc2Cl)NC(=O)CN(C)C(=O)[C@H](Cc2ccc(Cl)cc2)N(C)C(=O)CN(C)C(=O)CN(C)C1=O [Compound 2092] (cyclo(I[Sar][Sar][NMePhe(4-Cl)][Sar][X103]L[NMeF][NMeL][d(β3hA)][NMeA])) | 350 |
| CCCCC[C@H]1C(=O)N[C@@H]([C@@H](C)CC)C(=O)N[C@@H](C)C(=O)N2CC[C@H]2C(=O)N(C)[C@@H](COCCC)C(=O)N(C)CC(=O)N[C@@H](CCc2ccc(C(F)(F)F)c(Cl)c2)C(=O)N2CCC[C@H]2C(=O)NC2(CCCC2)C(=O)N(C)[C@@H](C2CCCC2)C(=O)N(C)[C@H](C(=O)N2C3CCC2COC3)CC(=O)N1C [Compound 163] ([NMeAhp(2)]IA[Aze][NMeS](Propyl)[Sar][hPhe(3-Cl-4-CF3)]P[Ac5c][NMeGly(cPent)][NMeD]-{3Oxa8azabicyclo(3.2.1)octane}; lactam N-11) | 6.1 |
| CCCC[C@H]1C(=O)N[C@@H]([C@@H](C)CC)C(=O)N(C)[C@@H](C)C(=O)N2CC[C@H]2C(=O)N(C)[C@@H](CC2CCCCC2)C(=O)N(C)CC(=O)N[C@@H](CCc2ccc(C(F)(F)F)c(Cl)c2)C(=O)N2CCC[C@H]2C(=O)NC2(CCCC2)C(=O)N(C)[C@@H](C(C)C)C(=O)N(C)[C@H](C(=O)N2CCCCC2)CC(=O)N1C [Compound 1616] ([NMeNle]I[NMeA][Aze][NMeCha][Sar][hPhe(3-Cl-4-CF3)]P[Ac5c][NMeV][NMeD]-Piperidide; lactam N-11) | 12 |
| CC[C@H](C)[C@@H]1NC(=O)[C@H](CC(C)C)N(C)C(=O)C[C@@H](C(=O)N2CCCCC2)N(C)C(=O)[C@H](C2CCCC2)N(C)C(=O)C2(CCCC2)NC(=O)[C@@H]2CCCN2C(=O)[C@H](CCc2ccc(C(F)(F)F)c(Cl)c2)NC(=O)CN(C)C(=O)[C@H](C2CCC2)N(C)C(=O)[C@@H]2CCN2C(=O)[C@H](C)N(C)C1=O [Compound 127] ([NMeL]I[NMeA][Aze][NMeGly(cBu)][Sar][hPhe(3-Cl-4-CF3)]P[Ac5c][NMeGly(cPent)][NMeD]-Piperidide; lactam N-11) | 0.43 |
| CC[C@H](C)[C@@H]1NC(=O)[C@H](C)N(C)C(=O)C[C@@H](C(=O)N2CCCCC2)N(C)C(=O)[C@H](C(C)C)N(C)C(=O)C2(CCCC2)NC(=O)[C@@H]2CCCN2C(=O)[C@H](CCc2ccc(C(F)(F)F)c(Cl)c2)NC(=O)[C@H]2CCCCN2C(=O)[C@H](CC2CCCCC2)N(C)C(=O)CN(C)C(=O)CN(C)C1=O [Compound 1118] ([NMeA]I[Sar][Sar][NMeCha][dPip][hPhe(3-Cl-4-CF3)]P[Ac5c][NMeV][NMeD]-Piperidide; lactam N-11) | 200 |
| C#CCC[C@H]1C(=O)N[C@@H]([C@@H](C)CC)C(=O)N(C)[C@@H](C)C(=O)N2CC[C@H]2C(=O)N(C)[C@@H](Cc2ccc(I)cc2)C(=O)N(C)CC(=O)N[C@@H](CCc2ccc(C(F)(F)F)c(Cl)c2)C(=O)N2CCC[C@H]2C(=O)NC2(CCCC2)C(=O)N(C)[C@@H](C2CCCCC2)C(=O)N[C@H](C)CC(=O)N1C [Compound 971] (cyclo([Ac5c][NMeChg][d(β3hA)][NMeHpra]I[NMeA][Aze][NMePhe(4-I)][Sar][hPhe(3-Cl-4-CF3)]P)) | 16 |
| CCCCN1CC(=O)N(C)[C@@H](Cc2ccc(Cl)cc2)C(=O)N(C)CC(=O)N[C@@H](CCc2ccc(C(F)(F)F)cc2)C(=O)N(C)[C@@H](CC(C)C)C(=O)NC(C)(C)C(=O)N(C)[C@@H](CC(C)C)C(=O)N[C@H](C)CC(=O)N(C)[C@@H](C)C(=O)N[C@@H]([C@@H](C)CC)C(=O)N(C)CC1=O [Compound 602] (cyclo([Aib][NMeL][d(β3hA)][NMeA]I[Sar][NBuGly][NMePhe(4-Cl)][Sar][hPhe(4-CF3)][NMeL])) | 280 |
| CC[C@H](C)[C@@H]1NC(=O)[C@H](C)N(C)C(=O)C[C@@H](C)NC(=O)[C@H](CC(C)C)N(C)C(=O)[C@H](Cc2ccccc2)N(C)C(=O)[C@H](CC(C)C)NC(=O)[C@H](CCc2c(F)c(F)c(F)c(F)c2F)NC(=O)CN(C)C(=O)[C@H](Cc2ccc(Cl)cc2)N(C)C(=O)CN(C)C(=O)CN(C)C1=O [Compound 2091] (cyclo(I[Sar][Sar][NMePhe(4-Cl)][Sar][X33]L[NMeF][NMeL][d(β3hA)][NMeA])) | 270 |
| CC[C@H](C)[C@@H]1NC(=O)[C@H](CC(C)C)N(C)C(=O)C[C@@H](C(=O)N2CCCCC2)N(C)C(=O)[C@H](C2CCCCC2)N(C)C(=O)C2(CCCC2)NC(=O)CN(CCOCCOC)C(=O)[C@H](CCc2ccc(C(F)(F)F)c(Cl)c2)NC(=O)CN(C)C(=O)[C@H](CC2CCCCC2)N(C)C(=O)CN(C)C(=O)CN(C)C1=O [Compound 2025] ([NMeL]I[Sar][Sar][NMeCha][Sar][hPhe(3-Cl-4-CF3)][X68][Ac5c][NMeChg][NMeD]-Piperidide; lactam N-11 (inferred); C-terminus assumed) | 1.4 |
